The target in this experiment is T1, recombinant c-Myc/Max (Homo sapiens, UniProt P01106+P61244).
T1 construct: made in house
The experiment is described as follows: Electrophoretic mobility shift assay (EMSA): inhibitory activity on DNA binding of recombinant c-Myc/Max. As to conditions: read-out: protein assay IC50. The protocol: 1) Preparation of Recombinant c-Myc and Max Proteins
Recombinant proteins were prepared as described in the following references: K. C. Jung et al., Fatty Acids, Inhibitors for the DNA Binding of c-Myc/Max Dimer, Suppress Proliferation and Induce Apoptosis of Differentiated HL-60 Human Leukemia Cell, Leukemia, 2006, 20(1), 122-7 or Kyung-Chae Jeong et al., Small-Molecule Inhibitors of c-Myc Transcriptional Factor Suppress Proliferation and Induce Apoptosis of Promyelocytic Leukemia Cell via Cell Cycle Arrest, Mol. BioSyst., 2010, 6, 1503-1509.
2) Electrophoretic Mobility Shift Assay (EMSA)
The inhibitory activity of each candidate compound on DNA binding of recombinant c-Myc/Max was measured using an electrophoretic mobility shift assay (EMSA). The ratio of protein-DNA complexes in each sample was evaluated by measuring band intensity. The oligonucleotides (E-box) corresponding to the consensus binding site of Myc/Max were dimerized through an annealing process. The protein mixture was incubated at room temperature for 5 minutes, and a DMSO solution containing each candidate compound was added thereto. The mixture was further incubated for 5 minutes, and the biotinylated DNA was added. To achieve a state of equilibrium, the final mixture was incubated at room temperature for 10 minutes. The protein-DNA complexes were separated from unbound free DNA by pre-electrophoresis using 8% polyacrylamide gel and 1×TBE buffer. After pre-electrophoresis, electrophoresis was performed at 120 V for 1 hour in 1×TBE buffer. Each band was visualized using HRP-conjugated streptavidin and an ECL solution, and band intensity was measured using image analysis software.
In general terms: Mobility shift assays separate free from complexed probe on a gel.

14 compounds from US9951021B2, “Compounds for inhibiting c-Myc/Max/DNA complex formation” (NATIONAL CANCER CENTER, priority 2016, dated 2018) can be followed below.

For orientation: IC50 means the concentration at which inhibition is half-maximal.

T1 sequence (P01106 whole entry): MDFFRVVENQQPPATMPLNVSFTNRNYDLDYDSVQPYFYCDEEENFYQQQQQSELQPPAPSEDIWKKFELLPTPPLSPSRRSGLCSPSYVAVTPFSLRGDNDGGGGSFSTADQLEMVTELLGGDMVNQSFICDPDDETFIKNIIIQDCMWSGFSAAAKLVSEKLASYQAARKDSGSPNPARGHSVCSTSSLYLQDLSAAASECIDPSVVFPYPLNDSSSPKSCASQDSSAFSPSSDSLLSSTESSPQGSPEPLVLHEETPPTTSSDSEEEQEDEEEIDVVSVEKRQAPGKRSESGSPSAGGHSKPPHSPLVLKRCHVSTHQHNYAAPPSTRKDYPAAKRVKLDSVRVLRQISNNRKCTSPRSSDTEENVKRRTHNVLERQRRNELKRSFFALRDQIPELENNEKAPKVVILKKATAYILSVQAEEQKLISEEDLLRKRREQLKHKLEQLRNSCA
T1 sequence (P61244 whole entry): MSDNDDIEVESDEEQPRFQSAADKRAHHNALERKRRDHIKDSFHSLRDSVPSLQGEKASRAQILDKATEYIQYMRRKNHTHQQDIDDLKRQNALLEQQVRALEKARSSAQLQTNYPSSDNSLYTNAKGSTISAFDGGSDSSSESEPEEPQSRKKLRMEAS

Regarding `COc1cc(S(F)(F)(F)(F)F)ccc1C[S+]([O-])c1[nH]c2c(Br)ccc(Cl)c2c(=O)c1C(C)=O` (centres unmarked) [Compound 75, 3-acetyl-8-bromo-5-chloro-2-((2-methoxy-4-(pentafluoro-λ6-sulfanyl)benzyl)sulfinyl)quinolin-4(1H)-one], the 50% inhibitory concentration (IC50) was under 1000 nM.
Consider `CC(=O)c1c([S+]([O-])Cc2cc(F)cc(S(F)(F)(F)(F)F)c2)[nH]c2c(Br)ccc(Cl)c2c1=O` (centres unmarked) [Compound 76, 3-acetyl-8-bromo-5-chloro-2-((3-fluoro-5-(pentafluoro-λ6-sulfanyl)benzyl)sulfinyl)quinolin-4(1H)-one], for which the IC50 was under 1000 nM.
Consider `CC(=O)c1c([S+]([O-])Cc2cccc(S(F)(F)(F)(F)F)c2)[nH]c2c(Br)ccc(Cl)c2c1=O` (centres unmarked) [Compound 77, 3-acetyl-8-bromo-5-chloro-2-((3-(pentafluoro-λ6-sulfanyl)benzyl)sulfinyl)quinolin-4(1H)-one], for which the IC50 was under 1000 nM.
In the case of `CC(=O)c1c([S+]([O-])Cc2c(F)c(F)c(F)c(F)c2F)[nH]c2c(Br)ccc(Cl)c2c1=O` (centres unmarked) [Compound 78, 3-acetyl-8-bromo-5-chloro-2-(((perfluorophenyl)methyl)sulfinyl)quinolin-4(1H)-one], the IC50 is under 1000 nM.
As to `CC(=O)c1c([S+]([O-])Cc2ccc(SC(F)(F)F)cc2)[nH]c2c(Cl)ccc(Cl)c2c1=O` (centres unmarked) [Compound 79, 3-acetyl-5,8-dichloro-2-((4-((trifluoromethyl)thio)benzyl)sulfinyl)quinolin-4(1H)-one], the IC50 is under 1000 nM.
Take `CC(=O)c1c([S+]([O-])Cc2ccc(S(F)(F)(F)(F)F)cc2)[nH]c2c(F)ccc(F)c2c1=O` (centres unmarked) [Compound 80, 3-acetyl-5,8-difluoro-2-((4-(pentafluoro-λ6-sulfanyl)benzyl)sulfinyl)quinolin-4(1H)-one]: the IC50 was under 1000 nM.
For `CC(=O)c1c([S+]([O-])Cc2ccc(C(F)(F)F)o2)[nH]c2c(F)ccc(F)c2c1=O` (centres unmarked) [Compound 81, 3-acetyl-5,8-difluoro-2-(((5-(trifluoromethyl)furan-2-yl)methyl)sulfinyl)quinolin-4(1H)-one] the value was under 1000 nM; for `CC(=O)c1c([S+]([O-])Cc2cc(C)on2)[nH]c2c(F)ccc(F)c2c1=O` (centres unmarked) [Compound 82, 3-acetyl-5,8-difluoro-2-(((5-methylisoxazol-3-yl)methyl)sulfinyl)quinolin-4(1H)-one], under 1000 nM; for `CC(=O)c1c([S+]([O-])Cc2ccc(I)cc2)[nH]c2c(Cl)ccc(Cl)c2c1=O` (centres unmarked) [Compound 83, 3-acetyl-5,8-dichloro-2-((4-iodobenzyl)sulfinyl)quinolin-4(1H)-one], under 1000 nM.
Turning to `CC(=O)c1c([S+]([O-])Cc2cccnc2)[nH]c2c(Br)ccc(Cl)c2c1=O` (centres unmarked) [Compound 84, 3-acetyl-8-bromo-5-chloro-2-((pyridin-3-ylmethyl)sulfinyl)quinolin-4(1H)-one], the IC50 is under 1000 nM.
Regarding `CC(C)C(=O)c1c([S+]([O-])Cc2ccc(SC(F)(F)F)cc2)[nH]c2c(F)ccc(F)c2c1=O` (centres unmarked) [Compound 85, 5,8-difluoro-3-isobutyryl-2-((4-((trifluoromethyl)thio)benzyl)sulfinyl)quinolin-4(1H)-one], the IC50 is under 1000 nM.
As for `Cc1cc(C[S+]([O-])c2[nH]c3c(Cl)ccc(Cl)c3c(=O)c2C(=O)C(C)C)no1` (centres unmarked) [Compound 86, 5,8-dichloro-3-isobutyryl-2-(((5-methylisoxazol-3-yl)methyl)sulfinyl)quinolin-4(1H)-one], the figure is under 1000 nM.
In the case of `O=C(c1ccccc1)c1c([S+]([O-])Cc2ccc(S(F)(F)(F)(F)F)cc2)[nH]c2c(F)ccc(F)c2c1=O` (centres unmarked) [Compound 87, 3-benzoyl-5,8-difluoro-2-((4-(pentafluoro-λ6-sulfanyl)benzyl)sulfinyl)quinolin-4(1H)-one], the IC50 is under 1000 nM.
In the case of `Cc1cc(C[S+]([O-])c2[nH]c3c(Cl)ccc(Cl)c3c(=O)c2C(=O)c2ccccc2)no1` (centres unmarked) [Compound 88, 3-benzoyl-5,8-dichloro-2-(((5-methylisoxazol-3-yl)methyl)sulfinyl)quinolin-4(1H)-one], the IC50 was under 1000 nM.
